Laboratory results as given in US9902740B2, “Macrocyclic benzodiazepine dimers, conjugates thereof, preparation and uses” (BRISTOL-MYERS SQUIBB COMPANY, priority 2015, dated 2018).
Like-named read-outs stand apart in the source and are kept apart here.

What was measured:
Assay type in all cases: cell-based
[1] = tested on: H226 human lung cancer cell line; assay: Cytotoxic activity of dimers against H226 cells
Excerpt: (§1) H226 is a human lung cancer cell line. N87 is a human gastric cancer cell line. OVCAR3 is a human ovarian cancer cell line. HCT116 is a human colon cancer cell line. HCT116/VM46 is a human colon cancer cell line that is multi-drug and paclitaxel resistant.

[2] = tested on: HCT116/VM46 human colon cancer cell line (multi-drug and paclitaxel resistant); assay: Cytotoxic activity of dimers against HCT116/VM46 cells
Excerpt: as §1

[3] = tested on: HCT116 human colon cancer cell line; assay: Cytotoxic activity of dimers against HCT116 cells
Excerpt: as §1

[4] = tested on: OVCAR3 human ovarian cancer cell line; assay: Cytotoxic activity of dimers against OVCAR3 cells
Excerpt: as §1

[5] = tested on: N87 human gastric cancer cell line; assay: Cytotoxic activity of dimers against N87 cells; conditions: read-out: Cell Line (IC50, nM) N87
Excerpt: as §1

[6] = Table 4, H226 human lung cancer cell line, read-out: Cell Line (IC50, nM) H226
[7] = Table 4, OVCAR3 human ovarian cancer cell line, read-out: Cell Line (IC50, nM) OVCAR3
[8] = Table 4, N87 human gastric cancer cell line
[9] = Homo sapiens, NCI-H226, read-out: Cell Line (IC50, nM) H226
[10] = Homo sapiens, HCT-116/VM46, Table 4
[11] = Homo sapiens, OVCAR-3, read-out: Cell Line (IC50, nM) OVCAR3

Structure (SMILES)	IC50 [1, 6] [nM]	IC50 ([2]; Table 4) [nM]	IC50 ([3]; Table 4) [nM]	IC50 [4, 7] [nM]	IC50 [5, 8] [nM]	IC50 [1, 9] [nM]	IC50 [2, 10] [nM]	IC50 ([3]; HCT-116, Table 4) [nM]	IC50 [4, 11] [nM]	IC50 ([5]; Homo sapiens) [nM]
C=C1C[C@H]2C=Nc3cc4c(cc3C(=O)N2C1)OCCCCNCCCCOc1cc2c(cc1OCCCO4)N=C[C@@H]1CC(=C)CN1C2=O [IIa-14]	21	170	38	50	23					
COc1ccc(C2=CN3C(=O)c4cc5c(cc4N=C[C@@H]3C2)OCCCOc2cc3c(cc2OCCCCCCCCO5)C(=O)N2C=C(c4ccc(OC)cc4)C[C@H]2C=N3)cc1 [IIc-7]	0.99	1.1	0.17	1.8	0.62					
CN1CCN(c2ccc(C3=CN4C(=O)c5cc6c(cc5N=C[C@@H]4C3)OCCCOc3cc4c(cc3OCCCCCCCCO6)C(=O)N3C=C(c5ccc(N6CCNCC6)cc5)C[C@H]3C=N4)cc2)CC1 [IIc-9]						0.33	0.16	0.063	1	0.68
C=C1C[C@H]2C=Nc3cc4c(cc3C(=O)N2C1)OCCOCCOCCOc1cc2c(cc1OCCCO4)N=C[C@@H]1CC(=C)CN1C2=O [IIa-13]	29	85	32	20	40					
COc1ccc(C2=CN3C(=O)c4cc5c(cc4N=C[C@@H]3C2)OCCCOc2cc3c(cc2OCCCCCCCCCCCCO5)C(=O)N2C=C(c4ccc(OC)cc4)C[C@H]2C=N3)cc1 [IIc-2]	220	> 250	48	> 250	230					
CC1=CN2C(=O)c3cc4c(cc3N=C[C@@H]2C1)OCCCOc1cc2c(cc1OCCCCCCCCO4)C(=O)N1C=C(c3ccc(N)cc3)C[C@H]1C=N2 [IId-1]						0.66	1.2	0.14	1.2	1.4
Nc1ccc(CN2CCCCOc3cc4c(cc3OCCCOc3cc5c(cc3OCCCC2)C(=O)N2Cc3ccccc3C[C@H]2C=N5)N=C[C@@H]2Cc3ccccc3CN2C4=O)cc1 [IIb-8]	0.13	1.2	0.015	0.25	0.27					
CN1CCN(c2ccc(C3=CN4C(=O)c5cc6c(cc5NC[C@@H]4C3)OCCCOc3cc4c(cc3OCCCCCCCCO6)C(=O)N3C=C(c5ccc(N6CCN(C)CC6)cc5)C[C@H]3CN4)cc2)CC1 [IId-4]	8.1	4.8	2	20	12					
Nc1ccc2c(c1)CN1C(=O)c3cc4c(cc3N=C[C@@H]1C2)OCCCOc1cc2c(cc1OCCCCCCCCO4)C(=O)N1Cc3ccccc3C[C@H]1C=N2 [IIb-6]						0.21	0.66	0.016	0.21	0.25
CN1CCN(c2ccc(C3=CN4C(=O)c5cc6c(cc5NC[C@@H]4C3)OCCCOc3cc4c(cc3OCCCCCCCCO6)C(=O)N3C=C(c5ccc(N6CCN(C)CC6)cc5)C[C@H]3C=N4)cc2)CC1 [IId-3]						0.035	0.033	0.045	0.26	0.072
O=C1c2cc3c(cc2N=C[C@@H]2CC(c4ccccc4)=CN12)OCCCOc1cc2c(cc1OCCOCCOCCO3)C(=O)N1C=C(c3ccccc3)C[C@H]1C=N2 [IIc-6]	1.1	6.4	0.13	1.7	1.5					
C=C1C[C@H]2C=Nc3cc4c(cc3C(=O)N2C1)OCCCCCCCCOc1cc2c(cc1OCCCO4)N=C[C@@H]1Cc3ccc(N)cc3CN1C2=O [IId-2]	0.56	2.8	0.11	0.71	1.1					
CN1CCN(c2ccc(C3=CN4C(=O)c5cc6c(cc5N=C[C@@H]4C3)OCCCOc3cc4c(cc3OCCCCCCCCO6)C(=O)N3C=C(c5ccc(N)cc5)C[C@H]3C=N4)cc2)CC1 [IIc-10]	0.044	0.071	0.022	0.36	0.36					
COCCOc1ccc(C2=CN3C(=O)c4cc5c(cc4N=C[C@@H]3C2)OCCCOc2cc3c(cc2OCCCCCCCCCCCCO5)C(=O)N2C=C(c4ccc(OCCOC)cc4)C[C@H]2C=N3)cc1 [IIc-3]	32	58	13	104	29					
O=C1c2cc3c(cc2N=C[C@@H]2Cc4ccccc4CN12)OCCCOc1cc2c(cc1OCCOCCOCCO3)C(=O)N1Cc3ccccc3C[C@H]1C=N2 [IIb-4]	0.15	2	0.068	0.2	0.14					
C=C1C[C@H]2C=Nc3cc4c(cc3C(=O)N2C1)OCCCCCCCCOc1cc2c(cc1OCCCO4)N=C[C@@H]1CC(=C)CN1C2=O [IIa-12]	0.32	4.8		0.52	0.89					
CN1CCN(c2ccc(C3=CN4C(=O)c5cc6c(cc5N=C[C@@H]4C3)OCCCOc3cc4c(cc3OCCCCCCCCO6)C(=O)N3C=C(c5ccc(N6CCN(C)CC6)cc5)C[C@H]3C=N4)cc2)CC1 [IIc-8]	0.047	0.076	0.006	0.35	0.034					
O=C1c2cc3c(cc2N=C[C@@H]2Cc4ccccc4CN12)OCCCOc1cc2c(cc1OCCCCNCCCCO3)C(=O)N1Cc3ccccc3C[C@H]1C=N2 [IIb-5]	0.45	7.3	0.077	0.6	0.35					
COc1ccc(C2=CN3C(=O)c4cc5c(cc4N=C[C@@H]3C2)OCCCOc2cc3c(cc2OCCCCCCCCO5)C(=O)N2C=C(c4ccc(N)cc4)C[C@H]2C=N3)cc1 [IIc-11]						0.36	0.36	0.063	0.31	0.56
